Data reported in ChEMBL document CHEMBL2331143, “Antiparkinsonian activity of some 9-N-, O-, S- and C-derivatives of 3-methyl-6-(prop-1-en-2-yl)cyclohex-3-ene-1,2-diol” (2013).

Legend:
Assay type in all cases: functional
Mus musculus [1] = test: Antiparkinsonian activity in MPTP C57Bl/6 mouse model assessed as immobility time at 20 mg/kg, po administered 24 hrs loast last dose of MPTP measured after 2 hrs post compound dose by open field test relative to saline-treated control
Mus musculus [2] = test: Antiparkinsonian activity in MPTP C57Bl/6 mouse model assessed as movement speed at 20 mg/kg, po administered 24 hrs loast last dose of MPTP measured after 2 hrs post compound dose by open field test relative to saline-treated control
Mus musculus [3] = test: Antiparkinsonian activity in MPTP C57Bl/6 mouse model assessed as movement distance at 20 mg/kg, po administered 24 hrs loast last dose of MPTP measured after 2 hrs post compound dose by open field test relative to saline-treated control
Mus musculus [4] = test: Antiparkinsonian activity in MPTP C57Bl/6 mouse model assessed as time of locomotor activity at 20 mg/kg, po administered 24 hrs loast last dose of MPTP measured after 2 hrs post compound dose by open field test relative to saline-treated control

C=C(C)[C@@H]1CC=C(C)[C@@H](O)[C@@H]1O
Time (Mus musculus [1]): 50.8 s | Activity (Mus musculus [2]): 2.6 cm/s | Activity (Mus musculus [3]): 302 cm | Time (Mus musculus [4]): 69.2 s

C=C(CSCCC)[C@@H]1CC=C(C)[C@@H](O)[C@@H]1O
Time (Mus musculus [1]): 58.6 s | Activity (Mus musculus [2]): 2.6 cm/s | Activity (Mus musculus [3]): 317.6 cm | Time (Mus musculus [4]): 61.4 s

C=C1CO[C@H]2[C@H](O)C(C)=CC[C@@H]12
Time (Mus musculus [1]): 73.4 s | Activity (Mus musculus [2]): 1.7 cm/s | Activity (Mus musculus [3]): 214 cm | Time (Mus musculus [4]): 46.6 s

C=C(CCCCC)[C@@H]1CC=C(C)[C@@H](O)[C@@H]1O
Time (Mus musculus [1]): 56.8 s | Activity (Mus musculus [2]): 2.7 cm/s | Activity (Mus musculus [3]): 335.2 cm | Time (Mus musculus [4]): 63.2 s

C=C(CNC1C2CC3CC(C2)CC1C3)[C@@H]1CC=C(C)[C@@H](O)[C@@H]1O (stereo not given in full)
Time (Mus musculus [1]): 85.2 s | Activity (Mus musculus [2]): 1.2 cm/s | Activity (Mus musculus [3]): 149.7 cm | Time (Mus musculus [4]): 34.8 s

C=C(CNCCN(C)C)[C@@H]1CC=C(C)[C@@H](O)[C@@H]1O
Time (Mus musculus [1]): 68.8 s | Activity (Mus musculus [2]): 1.8 cm/s | Activity (Mus musculus [3]): 225 cm | Time (Mus musculus [4]): 51.2 s

C=C(CN1C(=O)c2ccccc2C1=O)[C@@H]1CC=C(C)[C@@H](O)[C@@H]1O
Time (Mus musculus [1]): 61.7 s | Activity (Mus musculus [2]): 2.3 cm/s | Activity (Mus musculus [3]): 280 cm | Time (Mus musculus [4]): 58.3 s

C=C(CN1CCOCC1)[C@@H]1CC=C(C)[C@@H](O)[C@@H]1O
Time (Mus musculus [1]): 71.5 s | Activity (Mus musculus [2]): 1.7 cm/s | Activity (Mus musculus [3]): 215.3 cm | Time (Mus musculus [4]): 48.5 s

C=C(CO)[C@@H]1CC=C(C)[C@@H](O)[C@@H]1O
Time (Mus musculus [1]): 80 s | Activity (Mus musculus [2]): 1.5 cm/s | Activity (Mus musculus [3]): 182.1 cm | Time (Mus musculus [4]): 37.2 s

C=C(CN)[C@@H]1CC=C(C)[C@@H](O)[C@@H]1O
Time (Mus musculus [1]): 66.5 s | Activity (Mus musculus [2]): 2 cm/s | Activity (Mus musculus [3]): 248.6 cm | Time (Mus musculus [4]): 53.5 s
